Measured values taken from PubChem BioAssay (NCI).
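Method: 48-hour compound exposure of cells in 96-well plates, five concentrations, linear interpolation of endpoints. Abbreviation: GI50, concentration required for 50% inhibition of growth. TGI marks complete inhibition of growth.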

Experiments:
Assay in all cases: NCI-60 cell line screen, 48 h; in the data active = GI50 below about 0.43 µM; inactive = the rest
786-0 renal = system: 786-0 renal
A498 renal = system: A498 renal
A549 NSCLC = system: A549 NSCLC
BT-549 breast = system: BT-549 breast
CAKI-1 renal = system: CAKI-1 renal
CCRF-CEM leukemia = system: CCRF-CEM leukemia
COLO 205 colon = system: COLO 205 colon
DU-145 prostate = system: DU-145 prostate
EKVX NSCLC = system: EKVX NSCLC
HCC-2998 colon = system: HCC-2998 colon
HCT-116 colon = system: HCT-116 colon
HCT-15 colon = system: HCT-15 colon
HL-60(TB) leukemia = system: HL-60(TB) leukemia
HOP-62 NSCLC = system: HOP-62 NSCLC
HOP-92 NSCLC = system: HOP-92 NSCLC
HS 578T breast = system: HS 578T breast
HT29 colon = system: HT29 colon
IGROV1 ovarian = system: IGROV1 ovarian
K-562 leukemia = system: K-562 leukemia
KM12 colon = system: KM12 colon
LOX IMVI melanoma = system: LOX IMVI melanoma
M14 melanoma = system: M14 melanoma
MALME-3M melanoma = system: MALME-3M melanoma
MCF7 breast = system: MCF7 breast
MDA-MB-231 breast = system: MDA-MB-231 breast
MDA-MB-435 = system: MDA-MB-435
MOLT-4 leukemia = system: MOLT-4 leukemia
NCI-H226 lung = system: NCI-H226 lung
NCI-H23 lung = system: NCI-H23 lung
NCI-H460 lung = system: NCI-H460 lung
NCI-H522 lung = system: NCI-H522 lung
NCI/ADR-RES ovarian = system: NCI/ADR-RES ovarian
OVCAR-3 ovarian = system: OVCAR-3 ovarian
OVCAR-4 ovarian = system: OVCAR-4 ovarian
OVCAR-5 ovarian = system: OVCAR-5 ovarian
OVCAR-8 ovarian = system: OVCAR-8 ovarian
PC-3 prostate = system: PC-3 prostate
RPMI-8226 leukemia = system: RPMI-8226 leukemia
SF-268 CNS = system: SF-268 CNS
SF-295 CNS = system: SF-295 CNS
SF-539 CNS = system: SF-539 CNS
SK-MEL-2 melanoma = system: SK-MEL-2 melanoma
SK-MEL-28 melanoma = system: SK-MEL-28 melanoma
SK-MEL-5 melanoma = system: SK-MEL-5 melanoma
SK-OV-3 ovarian = system: SK-OV-3 ovarian
SN12C renal = system: SN12C renal
SNB-19 CNS = system: SNB-19 CNS
SNB-75 CNS = system: SNB-75 CNS
SR leukemia = system: SR leukemia
SW-620 colon = system: SW-620 colon
T-47D breast = system: T-47D breast
TK-10 renal = system: TK-10 renal
U251 CNS = system: U251 CNS
UACC-257 melanoma = system: UACC-257 melanoma
UACC-62 melanoma = system: UACC-62 melanoma
ACHN renal = system: ACHN renal
RXF 393 renal = system: RXF 393 renal
UO-31 renal = system: UO-31 renal

C[C@@H]1CC[C@@H]2[C@@H]1[C@H](OC(=O)/C=C/C1CCCCC1)[C@]1(C3CCCCC3)C[C@@H](OC(=O)CO)[C@@]2(C)O1
27.9 µM: TGI (SF-539 CNS)
inactive: GI50 (786-0 renal) 12 µM | GI50 (A549 NSCLC) 14.2 µM | GI50 (CCRF-CEM leukemia) 16.4 µM | GI50 (COLO 205 colon) 15.4 µM | GI50 (DU-145 prostate) 14.3 µM | GI50 (EKVX NSCLC) 12.1 µM | GI50 (HCC-2998 colon) 16 µM | GI50 (HCT-116 colon) 13.5 µM | GI50 (HCT-15 colon) 14 µM | GI50 (HL-60(TB) leukemia) 16.3 µM | GI50 (HOP-62 NSCLC) 14.6 µM | GI50 (HOP-92 NSCLC) 7.14 µM | GI50 (HT29 colon) 13.1 µM | GI50 (IGROV1 ovarian) 14.4 µM | GI50 (K-562 leukemia) 15.9 µM | GI50 (KM12 colon) 14.8 µM | GI50 (LOX IMVI melanoma) 14.3 µM | GI50 (M14 melanoma) 14.8 µM | GI50 (MALME-3M melanoma) 14.5 µM | GI50 (MCF7 breast) 12.8 µM | GI50 (MDA-MB-231 breast) 15.4 µM | GI50 (MDA-MB-435) 15.5 µM | GI50 (MOLT-4 leukemia) 13.7 µM | GI50 (NCI-H226 lung) 14.3 µM | GI50 (NCI-H23 lung) 16.6 µM | GI50 (NCI-H460 lung) 14.6 µM | GI50 (NCI-H522 lung) 13.7 µM | GI50 (NCI/ADR-RES ovarian) 0.579 µM | GI50 (OVCAR-3 ovarian) 13.8 µM | GI50 (OVCAR-4 ovarian) 13.1 µM | GI50 (OVCAR-5 ovarian) 15.8 µM | GI50 (OVCAR-8 ovarian) 10.7 µM | GI50 (PC-3 prostate) 11.5 µM | GI50 (RPMI-8226 leukemia) 15.2 µM | GI50 (SF-268 CNS) 0.859 µM | GI50 (SF-295 CNS) 14.3 µM | GI50 (SF-539 CNS) 14.3 µM | GI50 (SK-MEL-2 melanoma) 15 µM | GI50 (SK-MEL-28 melanoma) 15.1 µM | GI50 (SK-MEL-5 melanoma) 14 µM | GI50 (SK-OV-3 ovarian) 15 µM | GI50 (SNB-19 CNS) 14.4 µM | GI50 (SNB-75 CNS) 1.32 µM | GI50 (SR leukemia) 14 µM | GI50 (SW-620 colon) 15.5 µM | GI50 (T-47D breast) 11.1 µM | GI50 (TK-10 renal) 15.8 µM | GI50 (U251 CNS) 13.7 µM | GI50 (UACC-257 melanoma) 15.8 µM | GI50 (UACC-62 melanoma) 13.5 µM
28 µM: TGI (NCI-H226 lung)
25.6 µM: TGI (MCF7 breast)
5.7 µM: TGI (BT-549 breast)
28.5 µM: TGI (SK-MEL-2 melanoma)
16.5 µM: TGI (SNB-75 CNS)
24.4 µM: TGI (EKVX NSCLC)
24.1 µM: TGI (786-0 renal) | TGI (OVCAR-8 ovarian) | TGI (T-47D breast)
34.7 µM: TGI (CCRF-CEM leukemia)
27.5 µM: TGI (HOP-62 NSCLC)
29.6 µM: TGI (HCC-2998 colon) | TGI (MDA-MB-231 breast) | TGI (SK-MEL-28 melanoma) | TGI (UACC-257 melanoma)
35.3 µM: TGI (HL-60(TB) leukemia)
26.6 µM: TGI (HCT-116 colon) | TGI (OVCAR-4 ovarian) | TGI (SK-MEL-5 melanoma)
31.6 µM: TGI (M14 melanoma)
31.1 µM: TGI (KM12 colon)
29.5 µM: TGI (TK-10 renal)
27 µM: TGI (SNB-19 CNS)
29.8 µM: TGI (IGROV1 ovarian) | TGI (SW-620 colon)
31.7 µM: TGI (NCI-H23 lung)
active: GI50 (A498 renal) 0.0209 µM | GI50 (BT-549 breast) 0.0551 µM | GI50 (CAKI-1 renal) 0.034 µM | GI50 (HS 578T breast) 0.0162 µM | GI50 (SN12C renal) 0.0321 µM
26.7 µM: TGI (HCT-15 colon) | TGI (HT29 colon) | TGI (OVCAR-3 ovarian) | TGI (SF-295 CNS)
34.5 µM: TGI (RPMI-8226 leukemia)
14.8 µM: TGI (CAKI-1 renal)
27.3 µM: TGI (DU-145 prostate)
0.0556 µM: TGI (HS 578T breast)
35.9 µM: TGI (K-562 leukemia)
26.1 µM: TGI (U251 CNS)
29.9 µM: TGI (OVCAR-5 ovarian)
18.4 µM: TGI (NCI/ADR-RES ovarian)
31.3 µM: TGI (MOLT-4 leukemia)
27.7 µM: TGI (SK-OV-3 ovarian)
15.1 µM: TGI (SN12C renal)
19.7 µM: TGI (SF-268 CNS)
24.3 µM: TGI (PC-3 prostate)
0.0801 µM: TGI (A498 renal)
30 µM: TGI (COLO 205 colon) | TGI (NCI-H460 lung)
27.1 µM: TGI (A549 NSCLC) | TGI (LOX IMVI melanoma) | TGI (NCI-H522 lung)
31 µM: TGI (MDA-MB-435)
19.6 µM: TGI (HOP-92 NSCLC)
32.9 µM: TGI (SR leukemia)
28.9 µM: TGI (MALME-3M melanoma)
26.8 µM: TGI (UACC-62 melanoma)

Cc1ccc(NC(=O)COc2ccc(Cl)cc2)cc1Cl
> 100 µM: TGI (786-0 renal) | TGI (A498 renal) | TGI (A549 NSCLC) | TGI (ACHN renal) | TGI (BT-549 breast) | TGI (COLO 205 colon) | TGI (DU-145 prostate) | TGI (EKVX NSCLC) | TGI (HCT-116 colon) | TGI (HCT-15 colon) | TGI (HOP-62 NSCLC) | TGI (HOP-92 NSCLC) | TGI (HS 578T breast) | TGI (HT29 colon) | TGI (IGROV1 ovarian) | TGI (K-562 leukemia) | TGI (KM12 colon) | TGI (LOX IMVI melanoma) | TGI (M14 melanoma) | TGI (MALME-3M melanoma) | TGI (MCF7 breast) | TGI (MDA-MB-435) | TGI (MOLT-4 leukemia) | TGI (NCI-H226 lung) | TGI (NCI-H460 lung) | TGI (NCI-H522 lung) | TGI (NCI/ADR-RES ovarian) | TGI (OVCAR-3 ovarian) | TGI (OVCAR-4 ovarian) | TGI (OVCAR-5 ovarian) | TGI (OVCAR-8 ovarian) | TGI (PC-3 prostate) | TGI (RPMI-8226 leukemia) | TGI (RXF 393 renal) | TGI (SF-268 CNS) | TGI (SF-295 CNS) | TGI (SF-539 CNS) | TGI (SK-MEL-2 melanoma) | TGI (SK-MEL-28 melanoma) | TGI (SK-MEL-5 melanoma) | TGI (SK-OV-3 ovarian) | TGI (SN12C renal) | TGI (SNB-19 CNS) | TGI (SNB-75 CNS) | TGI (SW-620 colon) | TGI (T-47D breast) | TGI (TK-10 renal) | TGI (U251 CNS) | TGI (UACC-257 melanoma) | TGI (UACC-62 melanoma) | TGI (UO-31 renal)
59.7 µM: TGI (MDA-MB-231 breast)
85.9 µM: TGI (CCRF-CEM leukemia)
74.9 µM: TGI (NCI-H23 lung)
69.7 µM: TGI (SR leukemia)
81.9 µM: TGI (CAKI-1 renal)
